What all share (type): biochemical
One assay concerns the target T1, ALDH1A2 (Homo sapiens, UniProt O94788).
T1 sequence (O94788 1-518): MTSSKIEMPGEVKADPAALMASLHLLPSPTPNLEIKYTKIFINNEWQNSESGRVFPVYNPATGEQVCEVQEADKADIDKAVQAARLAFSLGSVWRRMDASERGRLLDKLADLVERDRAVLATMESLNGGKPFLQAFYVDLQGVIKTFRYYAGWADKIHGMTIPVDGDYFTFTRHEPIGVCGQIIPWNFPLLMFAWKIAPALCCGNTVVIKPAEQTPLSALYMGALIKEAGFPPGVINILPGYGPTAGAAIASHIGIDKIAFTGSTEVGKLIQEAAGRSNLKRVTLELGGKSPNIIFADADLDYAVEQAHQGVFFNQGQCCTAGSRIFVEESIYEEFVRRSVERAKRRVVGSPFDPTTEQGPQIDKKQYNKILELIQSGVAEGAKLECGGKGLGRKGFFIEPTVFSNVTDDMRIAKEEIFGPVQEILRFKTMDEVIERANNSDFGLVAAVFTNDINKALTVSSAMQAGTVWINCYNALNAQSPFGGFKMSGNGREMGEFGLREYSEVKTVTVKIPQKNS
Put plainly: In vitro enzymatic inhibition assay, ALDH1A2.

Another assay addresses T2, ALDH1A1 (WT) (Homo sapiens, UniProt P00352).
T2 sequence (P00352 1-501): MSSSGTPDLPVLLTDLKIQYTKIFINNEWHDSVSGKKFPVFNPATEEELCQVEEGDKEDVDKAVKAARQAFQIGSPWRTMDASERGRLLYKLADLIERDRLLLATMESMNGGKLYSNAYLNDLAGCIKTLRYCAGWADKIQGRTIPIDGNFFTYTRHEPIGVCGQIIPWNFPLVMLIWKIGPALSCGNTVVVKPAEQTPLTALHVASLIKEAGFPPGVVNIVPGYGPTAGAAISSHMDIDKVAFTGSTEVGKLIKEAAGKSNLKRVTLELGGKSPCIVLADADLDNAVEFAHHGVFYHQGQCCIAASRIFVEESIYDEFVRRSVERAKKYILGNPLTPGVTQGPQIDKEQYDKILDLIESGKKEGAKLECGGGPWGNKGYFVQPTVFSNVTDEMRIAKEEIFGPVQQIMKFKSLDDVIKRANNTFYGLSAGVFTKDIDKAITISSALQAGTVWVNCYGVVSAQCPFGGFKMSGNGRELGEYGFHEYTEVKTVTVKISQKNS
Kind of assay: In vitro enzymatic inhibition assay, ALDH1A1 (WT). Conditions: 2 min incub.

The target of a further assay is T3, ALDH1A3 (Homo sapiens, UniProt P47895).
T3 sequence (P47895 1-512): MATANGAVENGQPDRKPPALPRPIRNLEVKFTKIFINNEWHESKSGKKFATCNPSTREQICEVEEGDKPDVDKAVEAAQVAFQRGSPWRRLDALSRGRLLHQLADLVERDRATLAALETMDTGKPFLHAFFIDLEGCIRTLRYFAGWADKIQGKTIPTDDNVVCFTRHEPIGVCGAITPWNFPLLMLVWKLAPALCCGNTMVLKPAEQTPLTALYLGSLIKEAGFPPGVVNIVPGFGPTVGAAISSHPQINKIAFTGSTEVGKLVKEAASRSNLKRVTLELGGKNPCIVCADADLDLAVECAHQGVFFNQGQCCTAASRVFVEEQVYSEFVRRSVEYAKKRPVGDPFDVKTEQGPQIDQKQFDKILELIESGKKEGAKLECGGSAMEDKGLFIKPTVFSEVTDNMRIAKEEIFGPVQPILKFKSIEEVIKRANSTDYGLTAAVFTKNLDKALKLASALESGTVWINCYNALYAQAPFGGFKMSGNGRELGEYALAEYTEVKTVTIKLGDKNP
Kind of assay: In vitro enzymatic inhibition assay, ALDH1A3.

The target in a further assay is ALDH3A1 (Homo sapiens, UniProt P30838). Kind of assay: In vitro enzymatic inhibition assay, ALDH3A1.
Sequence of ALDH3A1 (P30838 whole entry): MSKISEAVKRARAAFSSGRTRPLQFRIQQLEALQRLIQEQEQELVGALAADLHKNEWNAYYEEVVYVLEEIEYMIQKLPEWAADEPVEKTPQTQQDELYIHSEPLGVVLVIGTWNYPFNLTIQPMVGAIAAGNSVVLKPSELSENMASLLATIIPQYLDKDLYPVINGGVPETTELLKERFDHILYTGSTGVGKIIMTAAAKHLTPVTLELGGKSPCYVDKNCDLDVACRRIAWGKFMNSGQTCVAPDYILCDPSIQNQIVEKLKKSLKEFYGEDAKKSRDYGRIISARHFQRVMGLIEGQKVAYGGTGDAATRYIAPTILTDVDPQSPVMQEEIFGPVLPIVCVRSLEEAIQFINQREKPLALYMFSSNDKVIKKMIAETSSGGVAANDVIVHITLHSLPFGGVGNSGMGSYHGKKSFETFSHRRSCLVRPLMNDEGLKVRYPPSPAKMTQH
The target of another assay is T4, ALDH1A1 (S121) (Homo sapiens, UniProt P00352, N121S).
T4 sequence (P00352 1-501 N121S): T2 sequence (P00352 1-501) with N121S
Kind of assay: In vitro enzymatic inhibition assay, ALDH1A1 (S121).

Residue numbers refer to the chain shown, from its start.

As to DEAB [reference compound], the IC50 was more than 20000 nM on ALDH1A2; 519 ± 75 nM against ALDH1A1 (WT); more than 20000 nM against ALDH1A3; more than 20000 nM at ALDH3A1; 1490 ± 240 nM at ALDH1A1 (S121).
